For one assay, the target named is T1, USP28 (His-tagged USP28-FL-mammalian) (Homo sapiens, UniProt Q96RU2).
T1 construct: Expression of USP28 (1-1077)-TEV-6*His (pTT5 vector) was carried out in Expi293f cells; made in house; host or cells: Expi293F cells (pTT5 vector)
T1 sequence (Q96RU2 1-1077): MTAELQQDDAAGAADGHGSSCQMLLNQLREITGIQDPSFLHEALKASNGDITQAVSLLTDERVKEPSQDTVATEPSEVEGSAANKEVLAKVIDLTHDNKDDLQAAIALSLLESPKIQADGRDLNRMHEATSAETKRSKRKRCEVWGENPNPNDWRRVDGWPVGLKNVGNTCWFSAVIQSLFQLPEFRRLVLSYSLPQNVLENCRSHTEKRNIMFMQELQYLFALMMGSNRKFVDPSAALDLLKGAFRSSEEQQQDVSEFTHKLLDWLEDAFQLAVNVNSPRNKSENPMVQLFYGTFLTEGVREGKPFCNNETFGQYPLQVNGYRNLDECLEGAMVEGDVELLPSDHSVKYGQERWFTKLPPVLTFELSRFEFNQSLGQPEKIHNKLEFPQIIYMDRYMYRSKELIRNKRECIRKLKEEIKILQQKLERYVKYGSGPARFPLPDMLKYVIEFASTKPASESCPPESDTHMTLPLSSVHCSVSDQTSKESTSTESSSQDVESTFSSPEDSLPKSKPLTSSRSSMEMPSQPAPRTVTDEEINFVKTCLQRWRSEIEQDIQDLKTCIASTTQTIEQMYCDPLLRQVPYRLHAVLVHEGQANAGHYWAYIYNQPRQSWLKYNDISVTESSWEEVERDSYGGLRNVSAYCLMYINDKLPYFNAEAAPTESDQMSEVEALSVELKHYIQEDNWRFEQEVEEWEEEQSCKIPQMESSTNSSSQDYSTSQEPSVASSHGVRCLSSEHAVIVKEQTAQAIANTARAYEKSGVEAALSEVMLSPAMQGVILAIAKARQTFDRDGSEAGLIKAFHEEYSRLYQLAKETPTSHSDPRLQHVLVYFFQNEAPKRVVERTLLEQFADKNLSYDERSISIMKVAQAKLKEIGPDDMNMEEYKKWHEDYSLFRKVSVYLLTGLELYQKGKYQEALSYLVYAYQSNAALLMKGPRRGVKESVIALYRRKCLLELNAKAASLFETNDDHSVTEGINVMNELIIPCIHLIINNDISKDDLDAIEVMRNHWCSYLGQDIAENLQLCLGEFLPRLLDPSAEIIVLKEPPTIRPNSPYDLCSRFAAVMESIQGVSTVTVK
The experiment in a line: Ubiquitin-Rhodamine 110 Assay for USP28 Activity, Example A-1(a). It counts as biochemical. The settings on record: Ubiquitin-Rhodamine 110 assay, read-out: USP28 A-1(a) IC50 range. A digest of the protocol: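 IC50s were fitted with a 4-parameter logistic to percent inhibition relative to no-enzyme and DMSO controls, using Rhodamine 110 fluorescence (485/535 nm) released from 25 nM Ub-Rh110. The enzyme was Expi293F-expressed USP28-FL-His at […], preincubated 30 min with compound (10-point, 25 μM top) in Tris pH 8.0 buffer containing BGG and Triton X-100. Substrate turnover ran 45 min at room temperature and was stopped with 10 mM citric acid.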
With `[2H]C1([2H])c2c(F)cc(N3CCNCC3)cc2OC[C@H]1NC(=O)c1sc2nc(C)ccc2c1N` (single isomer, unassigned) [Example 33-2], the IC50 was in the range of 200 to 2000 nM. For `Cc1nc2sc(C(=O)N[C@@H]3CCc4cc(N5CCNCC5)ccc4C3)c(N)c2s1` (single isomer, unassigned) [Example 11-34], the IC50 lay within 50 to 200 nM. On the same count and under the same terms, under `Cc1ccc2c(N)c(C(=O)N[C@H]3COc4cc(N5CCNCC5)ccc4[C@H]3C)sc2n1` (single isomer, unassigned) [Example 11-15] stands > 2000 nM. Regarding `CN[C@H]1CCN(c2ccc3c(c2)CC[C@@H](NC(=O)c2sc4nc(C)cnc4c2N)C3)C1` (single isomer, unassigned) [Example 11-26], the IC50 is > 2000 nM. The same measure, in the same setting: under `Cc1ccc2c(N)c(C(=O)N[C@@H]3CCc4c(C#N)c(N5CC6CCC(C5)N6)cc(F)c4C3)sc2n1` (single isomer, unassigned) [Example 14-18] stands 50 to 200 nM. Same read-out and setting: the same measure for `Cc1cnc2c(N)c(C(=O)N[C@@H]3CCc4c(C#N)c(N5CCNCC5)cc(F)c4C3)sc2n1` (single isomer, unassigned) [Example 14-11]: 1 to 50 nM.

For `CN[C@H]1CCN(c2ccc3c(c2)CC[C@H](NC(=O)c2sc4nc(C)cnc4c2N)C3)C1` (single isomer, unassigned) [Example 11-25], the IC50 lay within 50 to 200 nM. With `Cc1ccc2c(N)c(C(=O)N[C@H]3CCc4cc(N5CCNCC5)ccc4C3)sc2n1` (single isomer, unassigned) [Example 11-21], the IC50 lay within 200 to 2000 nM. Same read-out and setting: the same measure for `Cc1ccc2c(N)c(C(=O)N[C@H]3CCc4c(C#N)c(N5CC6CNCC(C5)O6)cc(F)c4C3)sc2n1` (single isomer, unassigned) [Example 14-15]: 1 to 50 nM; for `Cc1nc2sc(C(=O)N[C@@H]3CCc4c(C#N)c(N5CCNCC5)cc(F)c4C3)c(N)c2s1` (single isomer, unassigned) [Example 14-13]: 200 to 2000 nM. `Cc1ccc2c(N)c(C(=O)N[C@@H]3CCc4c(C#N)c(N5CC6CNCC(C5)O6)cc(F)c4C3)sc2n1` (single isomer, unassigned) [Example 14-16]: the IC50 was in the range of 50 to 200 nM. The same measure, in the same setting: the same measure for `CN[C@@H]1CCN(c2ccc3c(c2)CC[C@@H](NC(=O)c2sc4nc(C)cnc4c2N)C3)C1` (single isomer, unassigned) [Example 11-28]: 200 to 2000 nM.

With `Cc1ccc2c(N)c(C(=O)N[C@@H]3CCc4nc(N5C[C@@H](CF)[C@@H](N)C5)ncc4C3)sc2n1` [Example 445, 3-amino-N-[(6R)-2-[(3R,4R)-3-amino-4-(fluoromethyl)pyrrolidin-1-yl]-5,6,7,8-tetrahydroquinazolin-6-yl]-6-methylthieno[2,3-b]pyridine-2-carboxamide], the IC50 was 200 to 2000 nM. As to `CO[C@H]1CN(c2ccc3c(c2)OC[C@H](NC(=O)c2sc4nc(C)sc4c2N)C3)CC1N` (stereo partly drawn) [Example 118, 6-amino-N-[(3R)-7-[(3,4S)-3-amino-4-methoxypyrrolidin-1-yl]-3,4-dihydro-2H-1-benzopyran-3-yl]-2-methylthieno[2,3-d][1,3]thiazole-5-carboxamide], the IC50 fell in the range of 50 to 200 nM.

For the molecule `Cc1cnc2c(N)c(C(=O)N[C@@H]3CCc4cc(N5C[C@H]6C[C@@H]5CN6)ccc4C3)sc2n1` (single isomer, unassigned) [Example 11-32], the IC50 was 200 to 2000 nM. For `Cc1ccc2c(N)c(C(=O)N[C@H]3COc4cc(N5CCNCC5)ccc4[C@@H]3C)sc2n1` (single isomer, unassigned) [Example 11-17], the IC50 is > 2000 nM.

For `Cc1cnc2c(N)c(C(=O)N[C@H]3CCc4cc(N5CCNCC5)cc(F)c4C3)sc2n1` (single isomer, unassigned) [Example 11-38], the IC50 was in the range of 50 to 200 nM. For the molecule `Cc1cnc2c(N)c(C(=O)N[C@H]3CCc4c(C#N)c(N5CCNCC5)cc(F)c4C3)sc2n1` (single isomer, unassigned) [Example 14-12], the IC50 lay within 200 to 2000 nM. As for `Cc1ccc2c(N)c(C(=O)N[C@H]3COc4cc(N5C[C@H](N)[C@@]6(CCOC6)C5)ccc4C3)sc2n1` (single isomer, unassigned) [Example 439], the IC50 is 1 to 50 nM. For `CN[C@@H]1CN(c2ccc3c(n2)CC[C@H](NC(=O)c2sc4nc(C)ccc4c2N)C3)C[C@@H]1CF` [Example 442, 3-amino-N-[(6S)-2-[(3S,4S)-3-(fluoromethyl)-4-(methylamino)pyrrolidin-1-yl]-5,6,7,8-tetrahydroquinolin-6-yl]-6-methylthieno[2,3-b]pyridine-2-carboxamide], the IC50 lay within 50 to 200 nM. The same measure, in the same setting: the same measure for `Cc1ccc2c(N)c(C(=O)N[C@@H]3CCc4c(C#N)c(N5CCNCC5)cc(F)c4C3)sc2n1` (single isomer, unassigned) [Example 14-9]: 200 to 2000 nM; for `Cc1cnc2c(N)c(C(=O)N[C@H]3CCc4c(ccc(N5CCNCC5)c4F)C3)sc2n1` (single isomer, unassigned) [Example 21-10]: > 2000 nM.

With `Cc1ccc2c(N)c(C(=O)N[C@@H]3COc4cc(N5CCNCC5)ccc4[C@@H]3C)sc2n1` (single isomer, unassigned) [Example 11-18], the IC50 was in the range of 200 to 2000 nM. Still for that read-out and setting: the same measure for `Cc1cnc2c(N)c(C(=O)N[C@H]3CCc4cc(N5C[C@@H]6C[C@H]5CN6)ccc4C3)sc2n1` (single isomer, unassigned) [Example 11-29]: 50 to 200 nM; for `Cc1ccc2c(N)c(C(=O)N[C@H]3CCc4c(F)c(N5CC6CCC(C5)N6)cc(F)c4C3)sc2n1` (single isomer, unassigned) [Example 22-5]: 1 to 50 nM.

Still in this assay, the particulars now being: biochemical IC50 range, Ubiquitin-Rhodamine 110 assay, read-out: USP28 A-1(a).
For `CO[C@H]1CN(c2ccc3c(c2)CC[C@H](NC(=O)c2sc4nc(C)ccc4c2N)C3)C[C@H]1N` [Example 144, 3-amino-N-[(2S)-6-[(3R,4S)-3-amino-4-methoxypyrrolidin-1-yl]-1,2,3,4-tetrahydronaphthalen-2-yl]-6-methylthieno[2,3-b]pyridine-2-carboxamide], the IC50 was 50 to 200 nM. Take `Cc1ccc2c(N)c(C(=O)N[C@H]3CCc4cc(N5C[C@H](CF)[C@H](N)C5)ccc4C3)sc2n1` [Example 657, 3-amino-N-[(2S)-6-[(3S,4S)-3-amino-4-(fluoromethyl)pyrrolidin-1-yl]-1,2,3,4-tetrahydronaphthalen-2-yl]-6-methylthieno[2,3-b]pyridine-2-carboxamide]: the IC50 lay within 50 to 200 nM.

As for `Cc1ccc2c(N)c(C(=O)N[C@H]3COc4cc(N5C[C@@H]6CCNC[C@@H]65)cc(F)c4C3)sc2n1` [Example 665, 3-amino-N-[(3R)-7-[(1R,6S)-3,8-diazabicyclo[4.2.0]octan-8-yl]-5-fluoro-3,4-dihydro-2H-1-benzopyran-3-yl]-6-methylthieno[2,3-b]pyridine-2-carboxamide], the IC50 was in the range of 1 to 50 nM. Still for that read-out and setting: the same measure for `Cc1ccc2c(N)c(C(=O)N[C@H]3COc4cc(N5C[C@H](N)[C@@](C)(CF)C5)ccc4C3)sc2n1` [Example 659, 3-amino-N-[(3R)-7-[(3S,4R)-4-amino-3-(fluoromethyl)-3-methylpyrrolidin-1-yl]-3,4-dihydro-2H-1-benzopyran-3-yl]-6-methylthieno[2,3-b]pyridine-2-carboxamide]: 1 to 50 nM.

Take `CN[C@@H]1CN(c2ccc3c(c2)OC[C@H](NC(=O)c2sc4nc(C)ccc4c2N)C3)C[C@H]1CF` [Example 663, 3-amino-N-[(3R)-7-[(3R,4S)-3-(fluoromethyl)-4-(methylamino)pyrrolidin-1-yl]-3,4-dihydro-2H-1-benzopyran-3-yl]-6-methylthieno[2,3-b]pyridine-2-carboxamide]: the IC50 lay in the range of 1 to 50 nM. As for `Cc1ccc2c(N)c(C(=O)N[C@H]3COc4cc(N5C[C@@H](N)[C@@](C)(CF)C5)ccc4C3)sc2n1` [Example 660, 3-amino-N-[(3R)-7-[(3S,4S)-4-amino-3-(fluoromethyl)-3-methylpyrrolidin-1-yl]-3,4-dihydro-2H-1-benzopyran-3-yl]-6-methylthieno[2,3-b]pyridine-2-carboxamide], the IC50 was 1 to 50 nM.

The values are drawn from patent publication US12162888B2, “Carboxamides as ubiquitin-specific protease inhibitors” (Valo Early Discovery, Inc., priority 2018, dated 2024).
